Here are results for five compounds from patent publication US8143244B2, “Cyclopropyl fused indolobenzazepine HCV NS5B inhibitors” (Bristol-Myers Squibb Company, priority 2009, dated 2012).

In one data set the test system is HCV. The conditions noted are these: cited from earlier work.
For data set [1] the following is noted: extended dosing of the combination regimens (interferon and ribavirin); cited from earlier work.
In a further data set the target is T1, HCV NS5B (Hepatitis C virus genotype 1b, UniProt Q9WMX2).
T1 construct: The protein was expressed with an 18 amino acid C-terminal truncation to enhance the solubility; made in house; host or cells: E. coli BL21(DE3)
Briefly: HCV NS5B RdRp enzyme assay. It counts as biochemical. The conditions noted are these: Table 1; HCV NS5B RdRp genotype 1b. As for the experimental part:
HCV NS5B RdRp cloning, expression, and purification. The cDNA encoding the NS5B protein of HCV, genotype 1b, was cloned into the pET21a expression vector. The protein was expressed with an 18 amino acid C-terminal truncation to enhance the solubility. The E. coli competent cell line BL21(DE3) was used for expression of the protein. Cultures were grown at 37° C. for ˜4 hours until the cultures reached an optical density of 2.0 at 600 nm. The cultures were cooled to 20° C. and induced with 1 mM IPTG. Fresh ampicillin was added to a final concentration of 50 μg/ml and the cells were grown overnight at 20° C.
Cell pellets (3L) were lysed for purification to yield 15-24 mgs of purified NS5B. The lysis buffer consisted of 20 mM Tris-HCl, pH 7.4, 500 mM NaCl, 0.5% triton X-100, 1 mM DTT, 1 mM EDTA, 20% glycerol, 0.5 mg/ml lysozyme, 10 mM MgCl2, 15 ug/ml deoxyribonuclease I, and Complete TM protease inhibitor tablets (Roche). After addition of the lysis buffer, frozen cell pellets were resuspended using a tissue homogenizer. To reduce the viscosity of the sample, aliquots of the lysate were sonicated on ice using a microtip attached to a Branson sonicator. The sonicated lysate was centrifuged at 100,000×g for 1 hr at 4° C. and filtered through a 0.2 μm filter unit (Corning).
The protein was purified using three sequential chromatography steps: Heparin sepharose CL-6B, polyU sepharose 4B, and Hitrap SP sepharose (Pharmacia). The chromatography buffers were identical to the lysis buffer but contained no lysozyme, deoxyribonuclease I, MgCl2 or protease inhibitor and the NaCl concentration of the buffer was adjusted according to the requirements for charging the protein onto the column. Each column was eluted with a NaCl gradient which varied in length from 5-50 column volumes depending on the column type. After the final chromatography step, the resulting purity of the enzyme is >90% based on SDS-PAGE analysis. The enzyme was aliquoted and stored at −80° C.
Standard HCV NS5B RdRp enzyme assay. HCV RdRp genotype 1b assays were run in a final volume of 60 μl in 96 well plates (Costar 3912). The assay buffer is composed of 20 mM Hepes, pH 7.5, 2.5 mM KCl, 2.5 mM MgCl2, 1 mM DTT, 1.6 U RNAse inhibitor (Promega N2515), 0.1 mg/ml BSA (Promega R3961), and 2% glycerol. All compounds were serially diluted (3-fold) in DMSO and diluted further in water such that the final concentration of DMSO in the assay was 2%. HCV RdRp genotype 1b enzyme was used at a final concentration of 28 nM. A polyA template was used at 6 nM, and a biotinylated oligo-dT12 primer was used at 180 nM final concentration. Template was obtained commercially (Amersham 27-4110). Biotinylated primer was prepared by Sigma Genosys. 3H-UTP was used at 0.6 μCi (0.29 μM total UTP). Reactions were initiated by the addition of enzyme, incubated at 30° C. for 60 min, and stopped by adding 25 μl of 50 mM EDTA containing SPA beads (4 μg/μl, Amersham RPNQ 0007). Plates were read on a Packard Top Count NXT after >1 hr incubation at room temperature.
Modified HCV NS5B RdRp enzyme assay. A modified enzyme assay was performed essentially as described for the standard enzyme assay except for the following: The biotinylated oligo dT12 primer was precaptured on streptavidin-coated SPA beads by mixing primer and beads in assay buffer and incubating at room temperature for one hour. Unbound primer was removed after centrifugation. The primer-bound beads were resuspended in 20 mM Hepes buffer, pH 7.5 and used in the assay at final concentrations of 20 nM primer and 0.67 μg/μl beads. Order of addition in the assay: enzyme (14 nM) was added to diluted compound followed by the addition of a mixture of template (0.2 nM), 3H-UTP (0.6 μCi, 0.29 μM), and primer-bound beads, to initiate the reaction; concentrations given are final. Reactions were allowed to proceed for 4 hours at 30° C.
IC50 values for compounds were determined using seven different [I]. […]

The test system of a further data set is HCV replicon genotype 1a. Briefly: HCV Replicon Luciferase Reporter Assay (LE Assay), genotype 1a replicon. Conditions: Hepatitis C virus, read-out: LE NeoLuc EC50. It counts as cell-based, HCV genotype 1a. As for the experimental part: The HCV replicon luciferase assay was developed to monitor the inhibitory effects of compounds described in the disclosure on HCV viral replication. Utilization of a replicon luciferase reporter assay was first described by Krieger et al (Krieger N, Lohmann V, and Bartenschlager R, J. Virol. 75(10):4614-4624 (2001)). HUH-7 cells, constitutively expressing the HCV replicon, were grown in Dulbeccors Modified Eagle Media (DMEM) (Gibco-BRL) containing 10% Fetal calf serum (FCS) (Sigma) and 1 mg/ml G418 (Gibco-BRL). Compounds were serially diluted 3 folds in DMSO for a twenty-point titration and subsequently transferred to sterile 384-well tissue-culture treated plates (Coming cat #3571). The plates were then seeded with 50 μl of cells at a density of 3.0×10^3 cells/well in DMEM containing 4% FCS (final DMSO concentration at 0.5%). After 3 days incubation at 37° C., cells were analyzed for Renilla Luciferase activity using the EnduRen as substrate (Promega cat #E6485). The EnduRen substrate was diluted in DMEM and then added to the plates to a final concentration of 7.5 μM. The plates were incubated for 2 hrs at 37° C. and then read immediately for 30 seconds with Viewlux Imager (PerkinElmer) using a luminescence program. To assess cytotoxicity of compounds, CC50 values were generated by multiplexing the EnduRen-containing plates with Cell Titer-Blue (Promega, cat #G8082). 3 μl of Cell-Titer Blue was added to each well and incubated for 8 hrs at 37° C. The fluorescence signal from each well was read, with an excitation wavelength at 525/10 nm and an emission wavelength of 598/10 nm, using the Viewlux Imager.
Background: In antiviral work, replicon cells carry a viral genome segment that copies itself.

T1 sequence (Q9WMX2 2420-2992): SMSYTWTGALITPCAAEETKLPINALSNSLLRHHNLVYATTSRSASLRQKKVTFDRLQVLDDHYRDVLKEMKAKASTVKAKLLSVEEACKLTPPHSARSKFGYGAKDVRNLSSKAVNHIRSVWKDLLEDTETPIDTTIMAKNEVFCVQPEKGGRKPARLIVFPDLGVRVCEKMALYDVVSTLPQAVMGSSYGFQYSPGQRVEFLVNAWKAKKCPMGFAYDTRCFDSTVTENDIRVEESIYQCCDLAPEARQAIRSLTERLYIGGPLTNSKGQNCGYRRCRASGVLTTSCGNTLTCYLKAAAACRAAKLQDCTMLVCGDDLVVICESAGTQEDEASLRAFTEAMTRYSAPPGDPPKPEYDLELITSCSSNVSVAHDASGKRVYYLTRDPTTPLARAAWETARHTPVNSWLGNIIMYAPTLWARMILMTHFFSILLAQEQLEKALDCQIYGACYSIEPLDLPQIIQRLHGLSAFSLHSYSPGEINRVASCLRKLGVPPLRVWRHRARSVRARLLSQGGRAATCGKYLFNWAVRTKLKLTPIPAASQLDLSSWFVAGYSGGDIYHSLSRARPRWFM

As for `CNC(=O)c1c(-c2ccc(F)cc2)oc2cc(N(CCO)S(C)(=O)=O)c(C3CC3)cc12` [HCV-796], the “HCV RNA levels in patients” value in the data set with HCV (single agent: transient decrease then rebound, more robust drop combined with interferon and ribavirin) is on record as “showed an ability to reduce HCV RNA levels in patients”. In data set [1], the hepatic toxicity result is reported as “hepatic toxicity observed”. The IC50 is the concentration that gives 50% inhibition. The EC50 is the midpoint of the concentration-response curve. On HCV NS5B, `COc1ccc2c(c1)[C@@H]1C[C@]1(C(=O)N1CC34CCC3(CN(C(=O)N3CCCC3)C4)C1)Cn1c-2c(C2CCCCC2)c2ccc(C(=O)NS(=O)(=O)N(C)C)cc21` (stereo partly drawn) displayed an IC50 of 1.9 to 500 nM. Further, the EC50 with HCV replicon genotype 1a was 1.9 to 500 nM. For the compound alpha-interferon and ribavirin, the “sustained efficacy in patients” value in the data set on HCV (HCV therapy) was 40 % of patients. At HCV NS5B, `COc1ccc2c(c1)[C@@H]1C[C@]1(C(=O)N1CC34CCC3(CN(CC(F)(F)F)C4)C1)Cn1c-2c(C2CCCCC2)c2ccc(C(=O)NS(=O)(=O)C(C)C)cc21` (stereo partly drawn) showed a half-inhibitory concentration (IC50) of 1.9 to 500 nM. Moreover, in the data set with HCV replicon genotype 1a, the EC50 was in the range of 1.9 to 500 nM. The compound `COc1ccc2c(c1)[C@@H]1C[C@]1(C(=O)N1CC34CCC3(CN(C(=O)N(C(C)C)C(C)C)C4)C1)Cn1c-2c(C2CCCCC2)c2ccc(C(=O)NS(=O)(=O)C(C)C)cc21` (stereo partly drawn) showed an IC50 on HCV NS5B of 1.9 to 500 nM. For the same compound, in the data set on HCV replicon genotype 1a, the EC50 is 1.9 to 500 nM.
